Patent US20230416287A1, “Chemical Compounds” (GLAXOSMITHKLINE INTELLECTUAL PROPERTY DEVELOPMENT LIMITED, priority 2022, published 2023)
Values after ≈ are worked out from the molar mass of the structure shown.

Key:
[1] = CAD kinetic solubility; assay type: physicochemical; settings: phosphate buffered saline (PBS), aqueous buffer, PBS pH 7.4, 1 hour equilibration at room temperature, from DMSO stock, HPLC-CAD
Description: Kinetic solubility was measured using Charged Aerosol Detector (CAD). The aqueous kinetic solubility at pH 7.4 was determined by measuring the concentration of solute in solution after precipitation from DMSO stock solution. The DMSO stock solution was diluted 20-fold with phosphate buffered saline (PBS) pH 7.4 and the solubility of the compound was measured after 1 hour equilibration at room temperature by HPLC-CAD.

[2] = target: human Nav1.8 (Homo sapiens, UniProt Q9Y5Y9); assay: Nav1.8 inhibitory activity, QPatch 48 HTX electrophysiology in HEK293-Nav1.8 cells; assay type: cell-based; design: expressed in transfected cells; host or cells: HEK293; settings: half inactivation state voltage protocol (V1/2), HEK293 cells expressing human Nav1.8, read-out: [Nav1.8] pIC50 (converted)
Chain of human Nav1.8 (Q9Y5Y9 whole entry): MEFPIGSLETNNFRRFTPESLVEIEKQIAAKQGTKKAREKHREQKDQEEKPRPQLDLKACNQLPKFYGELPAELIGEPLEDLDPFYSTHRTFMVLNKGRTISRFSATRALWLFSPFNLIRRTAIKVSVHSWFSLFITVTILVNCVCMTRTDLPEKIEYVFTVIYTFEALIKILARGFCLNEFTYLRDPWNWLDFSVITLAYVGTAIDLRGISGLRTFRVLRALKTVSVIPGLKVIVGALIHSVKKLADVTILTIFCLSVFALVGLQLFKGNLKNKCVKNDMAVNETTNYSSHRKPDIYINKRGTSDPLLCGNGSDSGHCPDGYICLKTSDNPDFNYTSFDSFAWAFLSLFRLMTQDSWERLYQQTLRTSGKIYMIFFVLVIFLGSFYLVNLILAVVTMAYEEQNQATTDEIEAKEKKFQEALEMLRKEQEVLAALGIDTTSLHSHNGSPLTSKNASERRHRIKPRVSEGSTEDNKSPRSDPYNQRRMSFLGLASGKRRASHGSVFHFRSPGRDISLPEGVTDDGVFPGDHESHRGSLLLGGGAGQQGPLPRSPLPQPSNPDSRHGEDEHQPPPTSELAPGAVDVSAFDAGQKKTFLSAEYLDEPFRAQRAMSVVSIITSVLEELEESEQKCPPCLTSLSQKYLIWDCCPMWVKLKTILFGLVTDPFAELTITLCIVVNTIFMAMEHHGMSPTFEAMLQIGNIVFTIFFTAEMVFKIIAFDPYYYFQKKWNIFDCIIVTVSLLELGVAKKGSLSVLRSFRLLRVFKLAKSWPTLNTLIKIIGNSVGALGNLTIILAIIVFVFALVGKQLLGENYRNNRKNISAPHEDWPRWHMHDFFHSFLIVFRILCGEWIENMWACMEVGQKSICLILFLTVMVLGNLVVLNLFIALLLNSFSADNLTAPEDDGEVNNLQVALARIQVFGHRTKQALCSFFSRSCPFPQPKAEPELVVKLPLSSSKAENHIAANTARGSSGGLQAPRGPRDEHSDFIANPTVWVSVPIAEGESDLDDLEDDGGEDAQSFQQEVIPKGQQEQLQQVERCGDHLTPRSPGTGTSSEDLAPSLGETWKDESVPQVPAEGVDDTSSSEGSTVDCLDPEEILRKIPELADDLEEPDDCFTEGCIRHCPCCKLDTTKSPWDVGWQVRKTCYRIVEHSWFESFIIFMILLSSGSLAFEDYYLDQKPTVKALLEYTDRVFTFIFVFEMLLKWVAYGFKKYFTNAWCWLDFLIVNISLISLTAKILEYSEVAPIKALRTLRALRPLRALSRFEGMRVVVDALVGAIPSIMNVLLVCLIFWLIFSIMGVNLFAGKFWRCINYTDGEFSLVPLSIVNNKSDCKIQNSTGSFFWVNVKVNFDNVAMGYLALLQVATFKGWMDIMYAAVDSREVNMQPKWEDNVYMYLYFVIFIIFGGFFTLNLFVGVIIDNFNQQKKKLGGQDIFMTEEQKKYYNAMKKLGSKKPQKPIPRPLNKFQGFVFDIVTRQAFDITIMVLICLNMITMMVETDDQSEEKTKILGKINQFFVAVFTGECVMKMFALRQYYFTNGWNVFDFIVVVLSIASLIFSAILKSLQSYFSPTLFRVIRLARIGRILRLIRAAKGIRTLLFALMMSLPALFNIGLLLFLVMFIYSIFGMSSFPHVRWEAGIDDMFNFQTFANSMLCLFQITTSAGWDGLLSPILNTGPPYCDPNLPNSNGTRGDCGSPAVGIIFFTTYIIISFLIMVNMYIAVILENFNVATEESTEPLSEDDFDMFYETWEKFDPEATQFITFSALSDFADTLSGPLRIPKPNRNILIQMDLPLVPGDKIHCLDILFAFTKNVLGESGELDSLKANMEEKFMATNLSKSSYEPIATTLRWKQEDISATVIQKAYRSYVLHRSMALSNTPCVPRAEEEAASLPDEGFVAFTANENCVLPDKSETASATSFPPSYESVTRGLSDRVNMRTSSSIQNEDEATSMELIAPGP
Description: Biological Assay 1: Nav1.8 Inhibitory Activity Human embryonic kidney 293 cells (HEK293) expressing human Nav1.8, human Navol and human TREK1 (HEK293-Nav1.8) were grown in T150 cell culture flasks at 37° C., 5% CO2 incubator. HEK293-Nav1.8 were passaged every 2-3 days when confluency reached 80-90% in T150 cell culture flasks.
Pharmacological assessment of compounds of the invention was performed using the QPatch 48 HTX electrophysiological platform. HEK293-Nav1.8 cells were prepared on the day of use by removing culture media, washing in DPBS, adding Accutase (2 mL to cover the surface, aspirate 1 mL then 1-2 minutes at 37° C.) followed by addition of CHO-SFM II to stop the enzyme digestion and in order to obtain a suspension of 3×10^6 cell/mL.
Compounds of the invention were prepared in an extracellular solution of the following composition: NaCl (145 mM), KCl (4 mM), CaCl2) (2 mM), MgCl (2 mM), HEPES (1 mM), Glucose (10 mM), pH 7.4 with NaOH Osmolality 300 mOsM/L. An intracellular solution of the following composition was used: CsF (115 mM), CsCl (20 mm), NaCl (5 mM), EGTA (10 mM), HEPES (10 mM), Sucrose (20 mM), pH 7.2 with CsOH Osmolality 310 mOsm/L.
Utilizing the voltage-clamp mode in the QPatch 48 HTX system a half inactivation state voltage protocol (V1/2) was used to determine pharmacological activity of compounds of the invention at Nav1.8 ion channels. A V1/2 protocol was utilized with the following voltage steps: a holding voltage of −100 mV was established followed by a 20 ms voltage step to 0 mV (P1), followed by an inactivating voltage step at −46 mV for 8 seconds, followed by a step to −100 mV for 20 ms, before a 20 ms step to 0 mV (P2), then returned to the holding voltage of −100 mV. This voltage protocol was repeated at a frequency of every 15 seconds, the current magnitude was quantified at the P2 step throughout the recording. Inhibition of the measured current amplitude with compounds of the invention was analyzed by fitting a 4-6 points dose-response curve allowing determination of the fifty percent inhibition concentration (IC50). P2 currents were normalized according to measurements made at baseline (Baseline, vehicle only), after compound (Input, at each test concentration), and after positive reference compound (FullResponse, to achieve complete block), fit to the following equation: […]
To assess current run-down over the course of the experiment vehicle-only wells were utilized and the normalized current with vehicle-only (n. IVEH) was determined. To correct the compound response for run-down, the currents were corrected according to the following formula:
[formula] • Compound inhibition was fitted to the following Hill Equation to estimate the half maximal inhibition concentration (IC50)
[formula] • where Y is the normalized run-down corrected inhibition relative to the vehicle control (equivalent to n. IRD_Correct), C the test compound concentration, IC50 the concentration of test compound to inhibit the sodium current by 50%, and h the Hill coefficient.

[3] = Rat IV/PO pharmacokinetic study; assay type: in vivo, Han Wistar rats
Description: An in vivo rat pharmacokinetic study was conducted to determine whether prodrug compounds of the invention are converted to the respective parent compound upon administration. The rat pharmacokinetic study was conducted with a crossover design on two study days with a one-day recovery period between each study day. Three male, dual catheterized (femoral vein and carotid artery) Han Wistar rats were used for the study. Each rat was also implanted with a gastric catheter for oral dose administration. Rats were dosed at 1 mg/kg by a 60-minute intravenous (IV) infusion (femoral vein cannula), then subsequently oral dosed at 2 mg/kg via the gastric cannula, with 48 hours between dosing sessions. Dose solutions of the compound of Example 4 were prepared in 20% Cavitron/5% DMSO/75% water (IV) and in 6% Cavitron/5% DMSO/89% water (PO) without pH adjustment. The dose solutions were filtered using a 0.22 μm filter. The pH of the final dosing solutions was 6.0.
During the intravenous study leg, blood samples were collected from the carotid artery catheter at target times of 15, 30, 60 (end of infusion), 65, 75, 90, 120, 240, 360, 480, 720, and 1440 minutes following the initiation of the intravenous infusion of the compound of Example 4. During the oral study leg, blood samples were collected prior to dosing and at target times of 15, 30, 60, 90, 120, 180, 240, 360, 480, 720, and 1440 minutes following oral administration. Blood samples (100 μL) were mixed with 100 μL phosphatase inhibitor, a 50 μL aliquot of the blood and inhibitor mixture was transferred to a non-heparinized tube and stored at approximately −80° C. until analyzed. The concentrations in the filtered dose solutions were confirmed by preparing stepwise dilutions first into 50% aqueous acetonitrile with 0.10% formic acid then into heparinized male Wistar Han blood: inhibitor to achieve determined nominal concentrations. Triplicate 50 μL aliquots were removed and were frozen and stored at approximately […] until analyzed by LC-MS/MS as described below. LC-MS/MS was used to quantify the compound of Example 4 and the corresponding parent compound of Example 4A in the biological samples generated in the above described in vivo study.
Samples were prepared by protein precipitation followed by LC-MS/MS analysis employing positive-mode ionization against a set of calibration standards for the compounds prepared in the same matrix. Pharmacokinetic parameters for the study were derived from the concentration versus time profiles. Key pharmacokinetic parameters such as AUC0-∞. (extrapolated area under the blood concentration-time curve), AUC0-t (area under the blood concentration-time curve to the last time point with quantifiable drug), Cmax (maximum concentration), Tmax (time Cmax is achieved), CL (systemic blood clearance), Vdss (steady-state volume of distribution), MRT (mean residence time), and t1/2 (half-life) were determined for the compound of Example 4. The key pharmacokinetic parameters such as AUC0-∞, AUC0-t, Cmax, Tmax, MRT, and t1/2 (half-life) were determined for the parent compound Example 4A. Descriptive statistical data of pharmacokinetic parameters were calculated, including the mean and standard deviation (SD) using Microsoft Excel. The data are shown below in Tables 5A and 5B. Data are reported as mean±SD (N=3).

[4] = male, Han Wistar, prodrug Example 4 in blood, intravenous infusion of Example 4, 1 mg/kg, mean ± SD, N=3
[5] = male, Han Wistar, prodrug Example 4 in blood, intravenous infusion, 1 mg/kg, mean ± SD, N=3

Structure (SMILES)	solubility at 1 h [1]	IC50 [2]	other results
Cc1cc(F)ccc1N1CN(c2ccc(=O)n(COP(=O)(O)O)c2C)C(=O)c2cc(C(F)(F)F)c(F)cc21 [Example 1, (5-(7-fluoro-1-(4-fluoro-2-methylphenyl)-4-oxo-6-(trifluoromethyl)-1,4-dihydroquinazolin-3(2H)-yl)-6-methyl-2-oxopyridin-1(2H)-yl)methyl dihydrogen phosphate]	≥ 192 µg/mL	31.6 nM	–
Cc1cc(F)ccc1N1CN(c2ccc(=O)[nH]c2C)C(=O)c2cc(C(F)(F)F)c(F)cc21 [Example 1A, 7-fluoro-1-(4-fluoro-2-methylphenyl)-3-(2-methyl-6-oxo-1,6-dihydropyridin-3-yl)-6-(trifluoromethyl)-2,3-dihydroquinazolin-4(1H)-one]	32 µg/mL (≈ 71.2 µM)	10 nM	–
Cc1cc(OC(F)(F)F)ccc1N1CN(c2cc(C)c(=O)n(COP(=O)(O)O)c2C)C(=O)c2cc(C(F)(F)F)cnc21 [Example 2, (3,6-dimethyl-5-(1-(2-methyl-4-(trifluoromethoxy)phenyl)-4-oxo-6-(trifluoromethyl)-1,4-dihydropyrido[2,3-d]pyrimidin-3(2H)-yl)-2-oxopyridin-1(2H)-yl)methyl dihydrogen phosphate]	≥ 217 µg/mL	501 nM	–
Cc1c(N2CN(c3ccc(=O)n(COP(=O)(O)O)c3C)C(=O)c3cc(C(F)(F)F)ncc32)ccc(F)c1F [Example 3, (5-(1-(3,4-Difluoro-2-methylphenyl)-4-oxo-6-(trifluoromethyl)-1,4-dihydropyrido[3,4-d]pyrimidin-3(2H)-yl)-6-methyl-2-oxopyridin-1(2H)-yl)methyl dihydrogen phosphate]	224 µg/mL	1260 nM	–
Cc1c(N2CN(c3ccc(=O)n(COP(=O)(O)O)c3C)C(=O)c3cc(F)c(Cl)cc32)ccc(F)c1F [Example 4, (5-(7-chloro-1-(3,4-difluoro-2-methylphenyl)-6-fluoro-4-oxo-1,4-dihydroquinazolin-3(2H)-yl)-6-methyl-2-oxopyridin-1(2H)-yl)methyl dihydrogen phosphate]	157 µg/mL	31.6 nM	Vd ([3]; male, Han Wistar, blood, prodrug Example 4, intravenous infusion, 1 mg/kg, mean ± SD, N=3, read-out: Vdss): 0.687 ± 0.284 L/kg; Cmax ([3]; male, Han Wistar, prodrug Example 4 in blood, 60-minute intravenous infusion of Example 4, 1 mg/kg (Table 5A: 1.2 ± 0.1 mg/kg), mean ± SD, N=3): 238 ± 45 ng/mL; MRT [3, 4]: 6 ± 1.2 min; half-life [3, 4]: 40.2 ± 17.4 min; AUC(0-inf) [3, 5]: 197 ± 44 ng·h/mL; AUC(0-t) [3, 5]: 197 ± 284 ng·h/mL; clearance ([3]; male, Han Wistar, systemic blood clearance of prodrug Example 4, intravenous infusion, 1 mg/kg, mean ± SD, N=3): 110 ± 33 mL/min/kg; quantifiable concentrations following oral administration ([3]; prodrug Example 4 in blood, oral via gastric cannula, 2 mg/kg (Table 5A: 3.0 ± 0.0 mg/kg)): There were no
Cc1cc(F)ccc1N1CN(c2ccc(=O)n(COP(=O)(O)O)c2C)C(=O)c2cc(F)c(Cl)cc21 [Example 5, (5-(7-Chloro-6-fluoro-1-(4-fluoro-2-methylphenyl)-4-oxo-1,4-dihydroquinazolin-3(2H)-yl)-6-methyl-2-oxopyridin-1(2H)-yl)methyl dihydrogen phosphate]	135 µg/mL	63.1 nM	–

The next lines start with results.

solubility at 1 h [1]	IC50 [2]	Structure (SMILES)	other results
56 µg/mL (≈ 109 µM)	20 nM	Cc1cc(OC(F)(F)F)ccc1N1CN(c2cc(C)c(=O)[nH]c2C)C(=O)c2cc(C(F)(F)F)cnc21 [Example 2A, 3-(2,5-dimethyl-6-oxo-1,6-dihydropyridin-3-yl)-1-(2-methyl-4-(trifluoromethoxy)phenyl)-6-(trifluoromethyl)-2,3-dihydropyrido[2,3-d]pyrimidin-4(1H)-one]	–
≥ 210 µg/mL	100 nM	Cc1[nH]c(=O)ccc1N1CN(c2ccc(F)c(F)c2C)c2cnc(C(F)(F)F)cc2C1=O [Example 3A, 1-(3,4-difluoro-2-methylphenyl)-3-(2-methyl-6-oxo-1,6-dihydropyridin-3-yl)-6-(trifluoromethyl)-2,3-dihydropyrido[3,4-d]pyrimidin-4(1H)-one]	–
